This note sets out measurements from patent US10752612B2, “PLK4 inhibitors” (LUDWIG INSTITUTE FOR CANCER RESEARCH LTD, priority 2015, dated 2020).

Molecules are shown by their SMILES. Bounds are passed on as bounds.

In general, IC50 refers to the midpoint of a concentration-inhibition curve. A high value points to weaker potency in that assay.

The target in the test is T1, human Plk4 kinase domain (aa 2-275) (Homo sapiens, UniProt O00444).
T1 construct: purified 6×His-tagged human Plk4 kinase domain (aa 2-275); 6xHis; made in house; host or cells: E. coli
T1 sequence (O00444 2-275): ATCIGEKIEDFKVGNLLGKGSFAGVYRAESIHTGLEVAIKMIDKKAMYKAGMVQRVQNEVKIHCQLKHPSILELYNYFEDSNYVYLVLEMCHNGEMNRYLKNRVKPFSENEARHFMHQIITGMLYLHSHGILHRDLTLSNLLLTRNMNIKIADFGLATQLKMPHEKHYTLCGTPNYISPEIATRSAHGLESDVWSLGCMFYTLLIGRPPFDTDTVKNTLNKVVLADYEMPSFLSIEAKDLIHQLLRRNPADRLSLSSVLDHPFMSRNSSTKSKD
Nature of the test: Plk4 kinase assay (ADP-Glo). The class given is biochemical. The conditions noted are these: Table 1. In a few lines:
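Enzyme at 2.5-10 nM final, pH 8.0, reacted 4-16 hours at 25° C; ADP generation read by ADP-Glo luminescence. Ki derived from IC50 by Cheng-Prusoff or, for tight binders, Copeland formalism.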
In turn, `Cc1cc(Nc2nc(Sc3ccc(NC(=O)C4CC4)cc3)nc(N3CCN(C)CC3)c2C)n[nH]1` showed a half-inhibitory concentration (IC50) below 1000 nM.

In turn, `CCN1CCN(c2nc(Sc3ccc(NC(=O)C4CC4)cc3)nc(Nc3cc(C)[nH]n3)c2OC)CC1` gave an IC50 below 1000 nM.

Regarding `COCCN1CCN(c2nc(Sc3ccc(NC(=O)C4CC4)cc3)nc(Nc3cc(C)[nH]n3)c2OC)CC1`, the concentration for half-maximal inhibition (IC50) is below 1000 nM.

Turning to `COc1c(Nc2cc(C)[nH]n2)nc(Sc2ccc(NC(=O)C3CC3)cc2)nc1N1CCN(CCN(C)C)CC1`, the concentration for half-maximal inhibition (IC50) was below 1000 nM.

In turn, `Cc1cc(Nc2nc(Sc3ccc(NC(=O)C4CC4)cc3)nc(N(C)C(C)C)c2C)n[nH]1` came in with an IC50 below 1000 nM.

`COCCNc1nc(Sc2ccc(NC(=O)C3CC3)cc2)nc(Nc2cc(C)[nH]n2)c1C` yielded a half-maximal inhibitory concentration (IC50) below 1000 nM.

Compound `Cc1cc(Nc2nc(Sc3ccc(NC(=O)C4CC4)cc3)nc(N3CCCCC3)c2C)n[nH]1` yielded a half-maximal inhibitory concentration (IC50) below 1000 nM.

The compound `CNc1nc(Sc2ccc(NC(=O)C3CC3)cc2)nc(Nc2cc(C)[nH]n2)c1C` came in with a half-maximal inhibitory concentration (IC50) below 1000 nM.

For `COc1c(Nc2cc(C)[nH]n2)nc(Sc2ccc(S(=O)(=O)C(C)(C)c3c(F)c(F)c(F)c(F)c3F)cc2F)nc1N1CCC(CCN(C)C)CC1`, the IC50 is below 1000 nM.

Compound `COc1c(Nc2cc(C)[nH]n2)nc(Sc2ccc(S(=O)(=O)C(C)(C)c3c(F)c(F)cc(F)c3F)cc2F)nc1N1CCC(NC(C)=O)C1` (centres unmarked) came in with a half-inhibitory concentration (IC50) below 1000 nM.

`COc1c(Nc2cc(C)[nH]n2)nc(Sc2ccc(S(=O)(=O)C(C)(C)c3c(F)c(F)cc(F)c3F)cc2F)nc1N1CCC(OC)CC1` came in with an IC50 below 1000 nM.

For `COc1ccc(CS(=O)(=O)c2ccc(Sc3nc(Nc4cc(C)[nH]n4)c(OC)c(N4CCOCC4)n3)c(F)c2)cc1`, the half-maximal inhibitory concentration (IC50) is below 1000 nM.

For the compound `CNC1CCN(c2nc(Sc3ccc(S(=O)(=O)C(C)(C)c4cccc([N+](=O)[O-])c4F)cc3F)nc(Nc3cc(C)[nH]n3)c2OC)CC1`, the half-maximal inhibitory concentration (IC50) is below 1000 nM.

Take `COc1c(Nc2cc(C)[nH]n2)nc(Sc2ccc(S(=O)(=O)C(C)(C)c3cccnc3)cc2)nc1N1CCN(CCN(C)C)CC1`: the half-maximal inhibitory concentration (IC50) was below 1000 nM.

In the case of `COc1c(Nc2cc(C)[nH]n2)nc(Sc2ccc(S(=O)(=O)Cc3cccc([N+](=O)[O-])c3F)cc2F)nc1N1CCN(C)CC1`, the IC50 was below 1000 nM.

On to `COc1c(Nc2cc(C)[nH]n2)nc(Sc2ccc(S(=O)(=O)Cc3ccccc3)cc2)nc1N1CCN(Cc2ccncc2)CC1`, for which the IC50 is below 1000 nM.

`COc1c(Nc2cc(C)[nH]n2)nc(Sc2ccc(S(=O)(=O)Cc3cccc(C#N)c3)cc2)nc1N1CCN(CCN(C)C)CC1` had an IC50 below 1000 nM.

Compound `COc1ccccc1CS(=O)(=O)c1ccc(Sc2nc(Nc3cc(C)[nH]n3)c(OC)c(N3CCN(CCN(C)C)CC3)n2)cc1` registered an IC50 below 1000 nM.

In turn, `COc1c(Nc2cc(C)[nH]n2)nc(Sc2ccc(S(=O)(=O)Cc3cccc(C)c3)cc2)nc1N1CCN(CCN(C)C)CC1` displayed a 50% inhibitory concentration (IC50) below 1000 nM.

`COc1cccc(CS(=O)(=O)c2ccc(Sc3nc(Nc4cc(C)[nH]n4)c(OC)c(N4CCN(CCN(C)C)CC4)n3)cc2)c1` had an IC50 below 1000 nM.

On to `CCOc1c(Nc2cc(C)[nH]n2)nc(Sc2ccc(NC(=O)C3CC3)cc2)nc1N1CCC(O)CC1`, for which the IC50 was below 1000 nM.

The compound `COc1c(Nc2cc(C)[nH]n2)nc(Sc2ccc(N)cc2)nc1N1CCN(CCN(C)C)CC1` returned an IC50 of 100 to 1000 nM.

In the case of `COc1c(Nc2cc(C)[nH]n2)nc(Sc2ccccc2)nc1N1CCN(CCN(C)C)CC1`, the half-inhibitory concentration (IC50) lay within 100 to 1000 nM.

On to `COc1c(Nc2cc(C)[nH]n2)nc(SC)nc1N1CCN(CCN(C)C)CC1`, for which the 50% inhibitory concentration (IC50) is 100 to 1000 nM.

`CC(=O)Nc1ccc(Sc2nc(Nc3cc(C)[nH]n3)c(C)c(N3CCC(O)CC3C)n2)cc1` (centres unmarked): the IC50 was below 1000 nM.

Take `COc1c(Nc2cc(C)[nH]n2)nc(Sc2ccc(NC(C)=O)cc2)nc1N1CCN(CCN2CCOCC2)CC1`: the 50% inhibitory concentration (IC50) was below 1000 nM.

`CC(=O)Nc1ccc(Sc2nc(Nc3cc(C)[nH]n3)c(C)c(N3CCC(OCCN(C)C)CC3)n2)cc1` yielded an IC50 below 1000 nM.

Consider `CC(=O)Nc1ccc(Sc2nc(Nc3cc(C)[nH]n3)c(C)c(N3CCOC[C@@H]3C)n2)cc1`, for which the concentration for half-maximal inhibition (IC50) was below 1000 nM.

`COc1c(Nc2cc(C)[nH]n2)nc(Sc2ccc(NC(C)=O)cc2)nc1N1CCN(CCN2CCCCC2)CC1`: the concentration for half-maximal inhibition (IC50) was below 1000 nM.

In turn, `COc1c(Nc2cc(C)[nH]n2)nc(Sc2ccc(NC(C)=O)cc2)nc1N1CCC(OCCN(C)C)CC1` returned an IC50 of 100 to 1000 nM.

Turning to `COc1c(Nc2cc(C)[nH]n2)nc(Sc2ccc(NC(C)=O)cc2)nc1N1CCN(CCCN(C)C)CC1`, the IC50 was below 1000 nM.

For the compound `COc1c(Nc2c[nH]c(C)c2)nc(Sc2ccc(NC(C)=O)cc2)nc1N1CCC(O)C1` (centres unmarked), the IC50 was below 1000 nM.

Regarding `CSc1nc(Nc2cc(C)[nH]n2)c(C)c(N2CCN(CCN(C)C)CC2)n1`, the IC50 was below 1000 nM.

Compound `COc1c(Nc2cc(C)[nH]n2)nc(Sc2ccc(NC(=O)C(F)(F)F)cc2)nc1N1CCN(CCN(C)C)CC1` registered an IC50 below 1000 nM.

`CNC(=O)Nc1ccc(Sc2nc(Nc3cc(C)[nH]n3)c(OC)c(N3CCN(CCN(C)C)CC3)n2)cc1` came in with an IC50 below 1000 nM.

In the case of `CC(=O)Nc1ccc(Sc2nc(Nc3cc(C)[nH]n3)c(C)c(N3CCOC[C@H]3C)n2)cc1`, the 50% inhibitory concentration (IC50) is below 1000 nM.

`COc1c(Nc2cc(C)[nH]n2)nc(Sc2ccc(NC(C)=O)cc2)nc1N1CCN(CCNC(C)=O)CC1` had an IC50 below 1000 nM.

Turning to `CNCCN1CCN(c2nc(Sc3ccc(NC(C)=O)cc3)nc(Nc3cc(C)[nH]n3)c2OC)CC1`, the half-maximal inhibitory concentration (IC50) is below 1000 nM.

For the compound `COc1c(Nc2cc(C)[nH]n2)nc(Sc2ccc(S(=O)(=O)Cc3ccccc3F)cc2)nc1N1CCOCC1`, the half-inhibitory concentration (IC50) is below 1000 nM.

Regarding `COc1c(Nc2cc(C)[nH]n2)nc(Sc2ccc(S(=O)(=O)Cc3ccccc3[N+](=O)[O-])cc2)nc1N1CCN(CCN(C)C)CC1`, the 50% inhibitory concentration (IC50) was below 1000 nM.

As for `COc1c(Nc2cc(C)[nH]n2)nc(Sc2ccc(NC(C)=O)cc2)nc1N1CCOC[C@@H]1C`, the concentration for half-maximal inhibition (IC50) is below 1000 nM.

In turn, `COc1c(Nc2cc(C)[nH]n2)nc(Sc2ccc(NC(C)=O)cc2)nc1N1CCOC[C@H]1C` returned an IC50 below 1000 nM.

Regarding `COc1c(Nc2cc(C)[nH]n2)nc(Sc2ccc(NC(N)=O)cc2)nc1N1CCN(CCN(C)C)CC1`, the IC50 was below 1000 nM.

As for `COc1c(Nc2cc(C)[nH]n2)nc(Sc2ccc(S(=O)(=O)Cc3cccc(C(F)(F)F)c3)cc2)nc1N1CCN(CCN(C)C)CC1`, the 50% inhibitory concentration (IC50) is below 1000 nM.

On to `COc1c(Nc2cc(C)[nH]n2)nc(Sc2ccc(S(=O)(=O)Cc3cccc(F)c3F)cc2)nc1N1CCN(CCN(C)C)CC1`, for which the IC50 was below 1000 nM.

Consider `CC(=O)Nc1ccc(Sc2nc(Nc3cc(C)[nH]n3)c(C)c(NC3CCN(C)CC3)n2)cc1`, for which the IC50 is below 1000 nM.

Take `CC(=O)Nc1ccc(Sc2nc(Nc3cc(C)[nH]n3)c(C)c(NC3CCNCC3)n2)cc1`: the IC50 is below 1000 nM.

As to `COc1c(Nc2cc(C)[nH]n2)nc(Sc2ccc(NC(C)=O)cc2)nc1N1CCN(CC(=O)N(C)C)CC1`, the IC50 is below 1000 nM.

With `COc1c(Nc2cc(C)[nH]n2)nc(Sc2ccc(NC(C)=O)cc2)nc1NC1CCN(C)CC1`, the IC50 is below 1000 nM.

Compound `COc1c(Nc2cc(C)[nH]n2)nc(Sc2ccc(NC(C)=O)cc2)nc1N1CCN(C(=O)N(C)C)CC1` came in with an IC50 below 1000 nM.

As to `COc1c(Nc2cc(C)[nH]n2)nc(Sc2ccc(NC(C)=O)cc2)nc1N1CCC(CCN2CCOCC2)CC1`, the IC50 is below 1000 nM.

In the case of `CCOc1c(Nc2cc(C)[nH]n2)nc(Sc2ccc(NC(=O)C3CC3)cc2)nc1N1CCNCC1` [drawing 122], the IC50 was below 1000 nM.

Compound `CCOc1c(Nc2cc(C)[nH]n2)nc(Sc2ccc(NC(=O)C3CC3)cc2)nc1N(CC)CC` [drawing 123] returned an IC50 below 1000 nM.
